Experimental data taken from PubChem BioAssay AID1845213 (Molecular Pharmacology Branch, DTP, NCI, 2023).
Several values for one entry are separate records, joined by “and”; a condition that tells them apart may be missing. Equal values may be shown once. Activity calls are given as the source filed them. The calls were made as follows: active = viability on the fitted dose curve at most 10% of control; inactive = the rest.

Tested on: NCI-H841 complex tumor spheroid viability
Assay: Anticancer human tumor NCI-H841 cell line growth inhibition;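 as to IC50: spheroids exposed to compounds for 7 days before readout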;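 as to viability, T/C: spheroids exposed to compounds for 7 days before readout; 100% = DMSO vehicle control wells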
Conditions: for viability, T/C: stronger effect = lower value
Method in brief: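 Complex tumor spheroids combined malignant cells with endothelial cells and mesenchymal stem cells. DNA-damaging drugs and DNA repair inhibitors were tested alone and in combination, at half-log dilutions down from clinical Cmax (top 10 microM if Cmax unknown), 0.25% DMSO final.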

[1] = curve of first compound, second compound 30 pM
[2] = curve of first compound, second compound 94.9 pM
[3] = curve of first compound, second compound 0.0003 µM
[4] = curve of first compound, second compound 0.000949 µM
[5] = curve of first compound, second compound 0.003 µM
[6] = second compound 30 pM, first compound 0.0316 µM
[7] = second compound 30 pM, first compound 0.1 µM
[8] = second compound 30 pM, first compound 0.316 µM
[9] = second compound 30 pM, first compound 1 µM
[10] = second compound 30 pM, first compound 3.16 µM
[11] = second compound 30 pM, first compound 10 µM
[12] = second compound 94.9 pM, first compound 0.0316 µM
[13] = second compound 94.9 pM, first compound 0.1 µM
[14] = second compound 94.9 pM, first compound 0.316 µM
[15] = second compound 94.9 pM, first compound 1 µM
[16] = second compound 94.9 pM, first compound 3.16 µM
[17] = second compound 94.9 pM, first compound 10 µM
[18] = second compound 0.0003 µM, first compound 0.0316 µM
[19] = second compound 0.0003 µM, first compound 0.1 µM
[20] = second compound 0.0003 µM, first compound 0.316 µM
[21] = second compound 0.0003 µM, first compound 1 µM
[22] = second compound 0.0003 µM, first compound 3.16 µM
[23] = second compound 0.0003 µM, first compound 10 µM
[24] = second compound 0.000949 µM, first compound 0.0316 µM
[25] = second compound 0.000949 µM, first compound 0.1 µM
[26] = second compound 0.000949 µM, first compound 0.316 µM
[27] = second compound 0.000949 µM, first compound 1 µM
[28] = second compound 0.000949 µM, first compound 3.16 µM
[29] = second compound 0.000949 µM, first compound 10 µM
[30] = second compound 0.003 µM, first compound 0.0316 µM
[31] = second compound 0.003 µM, first compound 0.1 µM
[32] = second compound 0.003 µM, first compound 0.316 µM
[33] = second compound 0.003 µM, first compound 1 µM
[34] = second compound 0.003 µM, first compound 3.16 µM
[35] = second compound 0.003 µM, first compound 10 µM

CC1COCCN1c1cc(-c2ccnn2C)c2ccnc(-c3ccn[nH]3)c2n1 (configuration not stated) + Cn1nnc2c(C(N)=O)ncn2c1=O
0.0363 µM: IC50 (curve of first compound, second compound 10 µM)
inactive: viability, T/C (second compound 1 µM, first compound 0.0316 µM) 66% | viability, T/C (second compound 1 µM, first compound 0.1 µM) 24.1% | outcome (second compound 3.16 µM, first compound 0.0316 µM) | viability, T/C (second compound 3.16 µM, first compound 0.1 µM) 20.8% | viability, T/C (second compound 10 µM, first compound 0.0316 µM) 55.4% | viability, T/C (second compound 10 µM, first compound 0.1 µM) 12.6% | viability, T/C (second compound 31.6 µM, first compound 0.0316 µM) 56% | viability, T/C (second compound 31.6 µM, first compound 0.1 µM) 12.1% | viability, T/C (second compound 100 µM, first compound 0.0316 µM) 23.6%
active: viability, T/C (second compound 1 µM, first compound 0.316 µM) 8.33% | viability, T/C (second compound 1 µM, first compound 1 µM) 2.75% | viability, T/C (second compound 1 µM, first compound 3.16 µM) 1.79% | viability, T/C (second compound 1 µM, first compound 10 µM) 1.91% | viability, T/C (second compound 3.16 µM, first compound 0.316 µM) 5.48% | viability, T/C (second compound 3.16 µM, first compound 1 µM) 2.34% | viability, T/C (second compound 3.16 µM, first compound 3.16 µM) 1.67% | viability, T/C (second compound 3.16 µM, first compound 10 µM) 1.99% | viability, T/C (second compound 10 µM, first compound 0.316 µM) 6.12% | viability, T/C (second compound 10 µM, first compound 1 µM) 2.58% | viability, T/C (second compound 10 µM, first compound 3.16 µM) 1.4% | viability, T/C (second compound 10 µM, first compound 10 µM) 1.82% | viability, T/C (second compound 31.6 µM, first compound 0.316 µM) 4.22% | viability, T/C (second compound 31.6 µM, first compound 1 µM) 1.97% | viability, T/C (second compound 31.6 µM, first compound 3.16 µM) 1.42% | viability, T/C (second compound 31.6 µM, first compound 10 µM) 1.66% | viability, T/C (second compound 100 µM, first compound 0.1 µM) 6.68% | viability, T/C (second compound 100 µM, first compound 0.316 µM) 1.75% | viability, T/C (second compound 100 µM, first compound 1 µM) 2.09% | viability, T/C (second compound 100 µM, first compound 3.16 µM) 2.84% | viability, T/C (second compound 100 µM, first compound 10 µM) 1.47%
< 0.0316 µM: IC50 (curve of first compound, second compound 100 µM)
0.0491 µM: IC50 (curve of first compound, second compound 1 µM)
0.0376 µM: IC50 (curve of first compound, second compound 3.16 µM)
0.0369 µM: IC50 (curve of first compound, second compound 31.6 µM)

CC(C)n1c(=O)n(C)c2cnc3cc(F)c(-c4ccc(OCCCN5CCCCC5)nc4)cc3c21
inactive: viability, T/C (compound 0.0316 µM) 96.6% and 93.7% and 101% | viability, T/C (compound 0.1 µM) 94.6% and 91.3% and 99.4% | viability, T/C (compound 0.316 µM) 93.6% and 95.8% and 99.8% | viability, T/C (compound 1 µM) 94.1% and 91.1% and 99.3% | viability, T/C (compound 3.16 µM) 91.6% and 80.8% and 97% | viability, T/C (compound 10 µM) 88.3% and 76.8% and 90.8%
> 10 µM: IC50 (curve of compound)

Cc1cc(C)c(CNC(=O)c2cc(-c3ccc(CN4CCOCC4)cc3)cc3c2cnn3C2CCCC2)c(=O)[nH]1 + COc1cc2c(cc1O)CCNC21CSC2c3c(OC(C)=O)c(C)c4c(c3C(COC1=O)N1C(O)C3Cc5cc(C)c(OC)c(O)c5C(C21)N3C)OCO4
active: viability, T/C [23] 7.36% | viability, T/C [24] 2.45% | viability, T/C [25] 2.86% | viability, T/C [26] 3.65% | viability, T/C [27] 2.33% | viability, T/C [28] 2.54% | viability, T/C [29] 1.15% | viability, T/C [30] 0.26% | viability, T/C [31] 0.12% | viability, T/C [32] 0.11% | viability, T/C [33] 0.11% | viability, T/C [34] 0.13% | viability, T/C [35] 0.19%
inactive: viability, T/C [6] 99.7% | viability, T/C [7] 102% | viability, T/C [8] 104% | viability, T/C [9] 95.4% | viability, T/C [10] 87% | viability, T/C [11] 65% | viability, T/C [12] 99.5% | viability, T/C [13] 99.7% | viability, T/C [14] 97% | viability, T/C [15] 89.5% | viability, T/C [16] 84.7% | viability, T/C [17] 57% | viability, T/C [18] 38.6% | viability, T/C [19] 44% | viability, T/C [20] 46.7% | viability, T/C [21] 32.2% | viability, T/C [22] 25.2%
> 10 µM: IC50 [1] | IC50 [2]
< 0.0316 µM: IC50 [3] | IC50 [4] | IC50 [5]

COc1cc(C)[nH]c(=O)c1CN1CCc2c(Cl)cc(C(OC)C3COC3)c(Cl)c2C1=O (configuration not stated) + COc1cc2c(cc1O)CCNC21CSC2c3c(OC(C)=O)c(C)c4c(c3C(COC1=O)N1C(O)C3Cc5cc(C)c(OC)c(O)c5C(C21)N3C)OCO4
active: viability, T/C [22] 10.3% | viability, T/C [23] 5.83% | viability, T/C [24] 3.08% | viability, T/C [25] 2.58% | viability, T/C [26] 2.24% | viability, T/C [27] 1.23% | viability, T/C [28] 1.24% | viability, T/C [29] 0.9% | viability, T/C [30] 0.09% | viability, T/C [31] 0.09% | viability, T/C [32] 0.07% | viability, T/C [33] 0.1% | viability, T/C [34] 0.09% | viability, T/C [35] 0.17%
< 0.0316 µM: IC50 [3] | IC50 [4] | IC50 [5]
inactive: viability, T/C [6] 85.9% | viability, T/C [7] 76.3% | viability, T/C [8] 71.5% | viability, T/C [9] 67.3% | viability, T/C [10] 58.8% | viability, T/C [11] 48.7% | viability, T/C [12] 84.6% | viability, T/C [13] 67.9% | viability, T/C [14] 70.9% | viability, T/C [15] 56.1% | viability, T/C [16] 48.8% | viability, T/C [17] 39.1% | viability, T/C [18] 32.9% | viability, T/C [19] 27.3% | viability, T/C [20] 14.5% | viability, T/C [21] 13.7%
2.52 µM: IC50 [2]
9.9 µM: IC50 [1]

O=C(c1cc(Cc2n[nH]c(=O)c3ccccc23)ccc1F)N1CCN(C(=O)C2CC2)CC1 + CC[C@@]1(O)C(=O)OCc2c1cc1n(c2=O)Cc2cc3c(CN(C)C)c(O)ccc3nc2-1
< 0.0949 µM: IC50 (curve of first compound, second compound 0.00949 µM) | IC50 (curve of first compound, second compound 0.03 µM) | IC50 (curve of first compound, second compound 0.0949 µM) | IC50 (curve of first compound, second compound 0.3 µM)
active: viability, T/C (second compound 0.003 µM, first compound 9.49 µM) 6.04% | viability, T/C (second compound 0.003 µM, first compound 30 µM) 2.34% | viability, T/C (second compound 0.00949 µM, first compound 3 µM) 3.98% | viability, T/C (second compound 0.00949 µM, first compound 9.49 µM) 7.48% | viability, T/C (second compound 0.00949 µM, first compound 30 µM) 2.29% | viability, T/C (second compound 0.03 µM, first compound 0.0949 µM) 1.3% | viability, T/C (second compound 0.03 µM, first compound 0.3 µM) 1.56% | viability, T/C (second compound 0.03 µM, first compound 0.949 µM) 1.06% | viability, T/C (second compound 0.03 µM, first compound 3 µM) 1.3% | viability, T/C (second compound 0.03 µM, first compound 9.49 µM) 1.43% | viability, T/C (second compound 0.03 µM, first compound 30 µM) 1.97% | viability, T/C (second compound 0.0949 µM, first compound 0.0949 µM) 7.65% | viability, T/C (second compound 0.0949 µM, first compound 0.3 µM) 1.58% | viability, T/C (second compound 0.0949 µM, first compound 0.949 µM) 1.52% | viability, T/C (second compound 0.0949 µM, first compound 3 µM) 1.38% | viability, T/C (second compound 0.0949 µM, first compound 9.49 µM) 1.27% | viability, T/C (second compound 0.0949 µM, first compound 30 µM) 1.95% | viability, T/C (second compound 0.3 µM, first compound 0.0949 µM) 0.94% | viability, T/C (second compound 0.3 µM, first compound 0.3 µM) 1.16% | viability, T/C (second compound 0.3 µM, first compound 0.949 µM) 0.93% | viability, T/C (second compound 0.3 µM, first compound 3 µM) 0.82% | viability, T/C (second compound 0.3 µM, first compound 9.49 µM) 0.61% | viability, T/C (second compound 0.3 µM, first compound 30 µM) 0.6%
1.48 µM: IC50 [5]
inactive: viability, T/C (second compound 0.003 µM, first compound 0.0949 µM) 79.5% | viability, T/C (second compound 0.003 µM, first compound 0.3 µM) 75.1% | viability, T/C (second compound 0.003 µM, first compound 0.949 µM) 60.5% | viability, T/C (second compound 0.003 µM, first compound 3 µM) 33.6% | viability, T/C (second compound 0.00949 µM, first compound 0.0949 µM) 19.2% | viability, T/C (second compound 0.00949 µM, first compound 0.3 µM) 17.4% | viability, T/C (second compound 0.00949 µM, first compound 0.949 µM) 12.7%
